Experimental data published in ChEMBL document CHEMBL3044836, “Synthesis, antimicrobial and cytotoxic activities of novel 4-trifluoromethyl-(1,2,3)-thiadiazolo-5-carboxylic acid hydrazide Schiffs bases” (Med Chem Res, 2013).
In brackets after ≈: the same amount, converted by molar mass.

Assays:
Format in all cases: functional
Saccharomyces cerevisiae [1] = assay: Antifungal activity against Saccharomyces cerevisiae MTCC 36 assessed as growth inhibition at 100 ug/ml after 48 hr by agar cup diffusion method; details: MTCC 36, 48 h, read-out: DIZ
Klebsiella pneumoniae = assay: Antibacterial activity against Klebsiella pneumoniae assessed as growth inhibition by broth dilution method
Candida albicans [2] = assay: Antifungal activity against Candida albicans MTCC 227 assessed as growth inhibition at 150 ug/ml after 48 hr by agar cup diffusion method; details: MTCC 227, 48 h, read-out: DIZ
Aspergillus niger [3] = assay: Antifungal activity against Aspergillus niger MTCC 1344 assessed as growth inhibition at 150 ug/ml after 48 hr by agar cup diffusion method; details: MTCC 1344, 48 h, read-out: DIZ
Saccharomyces cerevisiae [4] = assay: Antifungal activity against Saccharomyces cerevisiae MTCC 36 assessed as growth inhibition at 150 ug/ml after 48 hr by agar cup diffusion method; details: MTCC 36, 48 h, read-out: DIZ
Escherichia coli = assay: Antibacterial activity against Escherichia coli MTCC 443 assessed as growth inhibition by broth dilution method
Aspergillus niger [5] = assay: Antifungal activity against Aspergillus niger MTCC 1344 assessed as growth inhibition at 100 ug/ml after 48 hr by agar cup diffusion method; details: MTCC 1344, 48 h, read-out: DIZ
Staphylococcus aureus = assay: Antibacterial activity against Staphylococcus aureus MTCC 96 assessed as growth inhibition by broth dilution method
Candida albicans [6] = assay: Antifungal activity against Candida albicans MTCC 227 assessed as growth inhibition at 100 ug/ml after 48 hr by agar cup diffusion method; details: MTCC 227, 48 h, read-out: DIZ
Bacillus subtilis = assay: Antibacterial activity against Bacillus subtilis MTCC 441 assessed as growth inhibition by broth dilution method
Diutina rugosa [7] = assay: Antifungal activity against Candida rugosa NCIM 3462 assessed as growth inhibition at 100 ug/ml after 48 hr by agar cup diffusion method; details: NCIM 3462, 48 h, read-out: DIZ
Pseudomonas aeruginosa = assay: Antibacterial activity against Pseudomonas aeruginosa MTCC 741 assessed as growth inhibition by broth dilution method
Diutina rugosa [8] = assay: Antifungal activity against Candida rugosa NCIM 3462 assessed as growth inhibition at 150 ug/ml after 48 hr by agar cup diffusion method; details: NCIM 3462, 48 h, read-out: DIZ
[9] = tested on: Staphylococcus epidermidis; assay: Antibacterial activity against Staphylococcus epidermidis MTCC 435 assessed as growth inhibition by broth dilution method
MCF7 = assay: Cytotoxicity against Homo sapiens (human) MCF7 cells assessed as cell viability at 10 uM after 48 hr by MTT assay relative to control; details: MCF7, 48 h, read-out: Activity
MDA-MB-231 = assay: Cytotoxicity against Homo sapiens (human) MDA-MB-231 cells assessed as cell viability at 10 uM after 48 hr by MTT assay relative to control; details: MDA-MB-231, 48 h, read-out: Activity

Row | SMILES | MIC (Escherichia coli; read-out: MIC) | MIC (Staphylococcus aureus; read-out: MIC) | MIC (Pseudomonas aeruginosa; read-out: MIC) | MIC (Klebsiella pneumoniae; read-out: MIC) | MIC (Bacillus subtilis; read-out: MIC) | MIC ([9]; read-out: MIC) | zone of inhibition at 100 µg/mL (Saccharomyces cerevisiae [1]) | zone of inhibition at 150 µg/mL (Candida albicans [2]) | zone of inhibition at 150 µg/mL (Aspergillus niger [3]) | zone of inhibition at 150 µg/mL (Saccharomyces cerevisiae [4]) | zone of inhibition at 100 µg/mL (Aspergillus niger [5]) | zone of inhibition at 100 µg/mL (Candida albicans [6]) | zone of inhibition at 100 µg/mL (Diutina rugosa [7]) | zone of inhibition at 150 µg/mL (Diutina rugosa [8]) | viability at 10 µM (MCF7) | viability at 10 µM (MDA-MB-231) | further results
1 | O=C(N/N=C/c1ccc([N+](=O)[O-])cc1)c1snnc1C(F)(F)F | 150 mg/L (≈ 434 µM) | 150 mg/L (≈ 434 µM) | 150 mg/L (≈ 434 µM) | 150 mg/L (≈ 434 µM) | 150 mg/L (≈ 434 µM) | 150 mg/L (≈ 434 µM) | 0 mm | 0 mm | 0 mm | 0 mm | 0 mm | 0 mm | 0 mm | 0 mm |  |  | 
2 | CN(C)c1ccc(/C=N/NC(=O)c2snnc2C(F)(F)F)cc1 |  | 150 mg/L (≈ 437 µM) | 150 mg/L (≈ 437 µM) |  | 150 mg/L (≈ 437 µM) | 150 mg/L (≈ 437 µM) | 0 mm | 0 mm | 0 mm | 0 mm | 0 mm | 0 mm | 0 mm | 0 mm |  |  | MIC (Klebsiella pneumoniae): > 150 mg/L; MIC (Escherichia coli): > 150 mg/L
3 | O=C(N/N=C/c1ccc(O)cc1)c1snnc1C(F)(F)F | 150 mg/L (≈ 474 µM) | 150 mg/L (≈ 474 µM) |  |  | 150 mg/L (≈ 474 µM) | 150 mg/L (≈ 474 µM) | 0 mm | 0 mm | 0 mm | 0 mm | 0 mm | 0 mm | 0 mm | 0 mm |  |  | MIC (Klebsiella pneumoniae): > 150 mg/L; MIC (Pseudomonas aeruginosa): > 150 mg/L
4 | COc1ccc(/C=N/NC(=O)c2snnc2C(F)(F)F)cc1 | 150 mg/L (≈ 454 µM) |  | 150 mg/L (≈ 454 µM) | 150 mg/L (≈ 454 µM) | 150 mg/L (≈ 454 µM) | 150 mg/L (≈ 454 µM) | 0 mm | 0 mm | 0 mm | 0 mm | 0 mm | 0 mm | 0 mm | 0 mm | 101% | 87.3% | MIC (Staphylococcus aureus): > 150 mg/L
5 | O=C(N/N=C/c1ccco1)c1snnc1C(F)(F)F | 150 mg/L (≈ 517 µM) | 150 mg/L (≈ 517 µM) | 150 mg/L (≈ 517 µM) | 150 mg/L (≈ 517 µM) | 150 mg/L (≈ 517 µM) | 150 mg/L (≈ 517 µM) | 0 mm | 0 mm | 0 mm | 0 mm | 0 mm | 0 mm | 0 mm | 0 mm | 100% | 89.5% | 
6 | O=C(N/N=C/c1cccs1)c1snnc1C(F)(F)F | 150 mg/L (≈ 490 µM) | 150 mg/L (≈ 490 µM) |  | 150 mg/L (≈ 490 µM) | 150 mg/L (≈ 490 µM) | 150 mg/L (≈ 490 µM) | 0 mm | 0 mm | 0 mm | 0 mm | 0 mm | 0 mm | 0 mm | 0 mm | 102% | 91.9% | MIC (Pseudomonas aeruginosa): > 150 mg/L
7 | C/C(=N\NC(=O)c1snnc1C(F)(F)F)c1ccccc1 |  |  | 150 mg/L (≈ 477 µM) | 150 mg/L (≈ 477 µM) | 150 mg/L (≈ 477 µM) | 150 mg/L (≈ 477 µM) | 0 mm | 0 mm | 0 mm | 0 mm | 0 mm | 0 mm | 0 mm | 0 mm | 115% | 94.5% | MIC (Escherichia coli): > 150 mg/L; MIC (Staphylococcus aureus): > 150 mg/L
8 | CN[C@@H]1[C@H](O[C@H]2[C@H](O[C@H]3[C@H](O)[C@@H](O)[C@H](N=C(N)N)[C@@H](O)[C@@H]3N=C(N)N)O[C@@H](C)[C@]2(O)C=O)O[C@@H](CO)[C@H](O)[C@H]1O [STREPTOMYCIN] | 6.25 mg/L (≈ 10.7 µM) | 6.25 mg/L (≈ 10.7 µM) | 1.56 mg/L (≈ 2.69 µM) | 3.12 mg/L (≈ 5.37 µM) | 6.25 mg/L (≈ 10.7 µM) | 3.12 mg/L (≈ 5.37 µM) |  |  |  |  |  |  |  |  |  |  | 

Continued, in another order:

Row | MIC (Escherichia coli; read-out: MIC) | MIC (Staphylococcus aureus; read-out: MIC) | MIC (Pseudomonas aeruginosa; read-out: MIC) | MIC (Klebsiella pneumoniae; read-out: MIC) | MIC (Bacillus subtilis; read-out: MIC) | MIC ([9]; read-out: MIC) | SMILES | zone of inhibition at 100 µg/mL (Saccharomyces cerevisiae [1]) | zone of inhibition at 150 µg/mL (Candida albicans [2]) | zone of inhibition at 150 µg/mL (Aspergillus niger [3]) | zone of inhibition at 150 µg/mL (Saccharomyces cerevisiae [4]) | zone of inhibition at 100 µg/mL (Aspergillus niger [5]) | zone of inhibition at 100 µg/mL (Candida albicans [6]) | zone of inhibition at 100 µg/mL (Diutina rugosa [7]) | zone of inhibition at 150 µg/mL (Diutina rugosa [8]) | viability at 10 µM (MCF7) | viability at 10 µM (MDA-MB-231) | further results
9 | 150 mg/L (≈ 417 µM) | 150 mg/L (≈ 417 µM) | 150 mg/L (≈ 417 µM) |  |  |  | C/C(=N\NC(=O)c1snnc1C(F)(F)F)c1ccc([N+](=O)[O-])cc1 | 0 mm | 0 mm | 0 mm | 0 mm | 0 mm | 0 mm | 0 mm | 0 mm |  |  | MIC (Klebsiella pneumoniae): > 150 mg/L; MIC (Bacillus subtilis): > 150 mg/L; MIC [9]: > 150 mg/L
10 | 150 mg/L (≈ 318 µM) | 150 mg/L (≈ 318 µM) | 150 mg/L (≈ 318 µM) | 150 mg/L (≈ 318 µM) | 150 mg/L (≈ 318 µM) | 150 mg/L (≈ 318 µM) | C/C(=N\NC(=O)c1snnc1C(F)(F)F)c1ccc(Br)cc1Br | 0 mm | 15 mm | 0 mm | 0 mm | 0 mm | 11 mm | 0 mm | 0 mm | 123% | 94.7% | 
11 | 150 mg/L (≈ 595 µM) | 150 mg/L (≈ 595 µM) | 150 mg/L (≈ 595 µM) | 150 mg/L (≈ 595 µM) | 150 mg/L (≈ 595 µM) | 150 mg/L (≈ 595 µM) | CC(C)=NNC(=O)c1snnc1C(F)(F)F | 0 mm | 0 mm | 0 mm | 0 mm | 0 mm | 0 mm | 0 mm | 0 mm |  |  | 
12 | 150 mg/L (≈ 539 µM) | 150 mg/L (≈ 539 µM) | 150 mg/L (≈ 539 µM) | 150 mg/L (≈ 539 µM) | 150 mg/L (≈ 539 µM) |  | O=C(NN=C1CCCC1)c1snnc1C(F)(F)F | 0 mm | 0 mm | 0 mm | 0 mm | 0 mm | 0 mm | 0 mm | 0 mm | 97.9% | 84.2% | MIC [9]: > 150 mg/L
13 | 150 mg/L (≈ 513 µM) | 150 mg/L (≈ 513 µM) |  | 150 mg/L (≈ 513 µM) | 150 mg/L (≈ 513 µM) | 150 mg/L (≈ 513 µM) | O=C(NN=C1CCCCC1)c1snnc1C(F)(F)F | 0 mm | 7 mm | 0 mm | 0 mm | 0 mm | 0 mm | 0 mm | 0 mm | 97.2% | 78.6% | MIC (Pseudomonas aeruginosa): > 150 mg/L
14 | 150 mg/L (≈ 490 µM) | 150 mg/L (≈ 490 µM) | 150 mg/L (≈ 490 µM) | 150 mg/L (≈ 490 µM) |  |  | O=C(NN=C1CCCCCC1)c1snnc1C(F)(F)F | 0 mm | 0 mm | 0 mm | 0 mm | 0 mm | 0 mm | 0 mm | 0 mm |  |  | MIC (Bacillus subtilis): > 150 mg/L; MIC [9]: > 150 mg/L
15 |  | 150 mg/L (≈ 448 µM) | 150 mg/L (≈ 448 µM) | 150 mg/L (≈ 448 µM) |  |  | O=C(N/N=C/c1ccc(Cl)cc1)c1snnc1C(F)(F)F | 0 mm | 0 mm | 0 mm | 0 mm | 0 mm | 0 mm | 0 mm | 0 mm |  |  | MIC (Escherichia coli): > 150 mg/L; MIC (Bacillus subtilis): > 150 mg/L; MIC [9]: > 150 mg/L
16 |  | 150 mg/L (≈ 396 µM) |  | 150 mg/L (≈ 396 µM) |  | 150 mg/L (≈ 396 µM) | O=C(N/N=C/c1ccc(Br)cc1)c1snnc1C(F)(F)F | 0 mm | 0 mm | 0 mm | 0 mm | 0 mm | 0 mm | 0 mm | 0 mm |  |  | MIC (Escherichia coli): > 150 mg/L; MIC (Bacillus subtilis): > 150 mg/L; MIC (Pseudomonas aeruginosa): > 150 mg/L
17 | 12.5 mg/L (≈ 37.4 µM) | 1.56 mg/L (≈ 4.67 µM) | 12.5 mg/L (≈ 37.4 µM) | 6.25 mg/L (≈ 18.7 µM) | 1.56 mg/L (≈ 4.67 µM) | 3.12 mg/L (≈ 9.35 µM) | CC1(C)S[C@@H]2[C@H](NC(=O)Cc3ccccc3)C(=O)N2[C@H]1C(=O)O [PENICILLIN G] |  |  |  |  |  |  |  |  |  |  | 
